Test results as given in PMC9127750, “Structure-based design of CDC42 effector interaction inhibitors for the treatment of cancer” (Cell reports, 2022).
“And” between values parts separate entries of the source, which are not always exact repeats. Equal entries are not always repeated.

System: WM3248 melanoma cells, 486 antibodies
Assay: Reverse phase protein arrays (RPPA)
Assay type: cell-based, Human
Source text: Pellets were snap frozen in liquid nitrogen and shipped to MD Anderson Cancer Center core RPPA facility for RPPA analysis (Table S5). Three biological replicates for each sample were generated.
Nomenclatures on the RPPA heatmaps: name_of_antibody.species_of_antibody.status_of_antibody. V - antibody validated; C - validation of antibody in progress; Q - antibody nonspecific; E – under evaluation; antibodies raised in M - mouse, G - goat, R - rabbit, or T - rat.

[1] = Norm_20: replicates 1-3 and Average, relative to 0

In the case of `CN(C)c1cccc(Nc2cc(-c3ccccc3)nc(C3CCNCC3)n2)c1` [ARN22089, N1,N1-dimethyl-N3-(6-phenyl-2-(piperidin-4-yl)pyrimidin-4-yl)benzene-1,3-diamine], the “PEA.15.R.V Average” value (Norm_20, normalized to Norm_0) is reported as 1.052, the “PEA.15_pS116.R.V Average” value (Norm_20, normalized to Norm_0) is reported as 0.946 and the “PERK.R.V Average” value (Norm_20, normalized to Norm_0) is reported as 1.025. The “PGM1.R.V Average” value (Norm_20, normalized to Norm_0) was 0.977, the “PHGDH.R.C Average” value (Norm_20, normalized to Norm_0) was 1.014 and the “PHLPP.R.V Average” value (Norm_20, normalized to Norm_0) was 1.227. The “PI3K.p85.R.C Average” value (Norm_20, normalized to Norm_0) was 0.845, the “PI3K.p110.a.R.C Average” value (Norm_20, normalized to Norm_0) was 0.888 and the “PI3K.p110.b.M.C Average” value (Norm_20, normalized to Norm_0) was 0.953. The “PKA.a.R.V Average” value (Norm_20, normalized to Norm_0) was 0.999, the “PKC.a.b.II_pT638_T641.R.V Average” value (Norm_20, normalized to Norm_0) was 0.901 and the “PKC.b.II_pS660.R.V Average” value (Norm_20, normalized to Norm_0) was 1.030. For the same compound, the “PKCa.R.V Average” value (Norm_20, normalized to Norm_0) was 1.322, the “PKM2.R.C Average” value (Norm_20, normalized to Norm_0) was 1.001 and the “PLK1.R.C Average” value (Norm_20, normalized to Norm_0) was 0.902. The “PMS2.R.V Average” value (Norm_20, normalized to Norm_0) was 0.963, the “PR.R.V Average” value (Norm_20, normalized to Norm_0) was 0.888 and the “PRAS40.M.C Average” value (Norm_20, normalized to Norm_0) was 1.217. For the same compound, the “PRAS40_pT246.R.V Average” value (Norm_20, normalized to Norm_0) was 1.170, the “PRC1_pT481.R.C Average” value (Norm_20, normalized to Norm_0) was 1.054 and the “Patched.R.C Average” value (Norm_20, normalized to Norm_0) was 1.056. The “Paxillin.R.C Average” value (Norm_20, normalized to Norm_0) was 0.857, the “Pdcd4.R.C Average” value (Norm_20, normalized to Norm_0) was 0.984 and the “Porin.M.V Average” value (Norm_20, normalized to Norm_0) was 1.080. For the same compound, the “p21.R.C Average” value (Norm_20, normalized to Norm_0) was 0.757, the “p27.Kip1.R.C Average” value (Norm_20, normalized to Norm_0) was 1.199 and the “p27_pT157.R.C Average” value (Norm_20, normalized to Norm_0) was 1.392. The “p27_pT198.R.V Average” value (Norm_20, normalized to Norm_0) was 1.105, the “p38.MAPK.R.V Average” value (Norm_20, normalized to Norm_0) was 0.992 and the “p38.MAPK._pT180_Y182.R.V Average” value (Norm_20, normalized to Norm_0) was 0.965. The “p38.a.M.V Average” value (Norm_20, normalized to Norm_0) was 0.909, the “p44.42.MAPK.R.V Average” value (Norm_20, normalized to Norm_0) was 1.224 and the “p53.R.C Average” value (Norm_20, normalized to Norm_0) was 1.197. For the same compound, the “p70.S6K1.R.V Average” value (Norm_20, normalized to Norm_0) was 1.144, the “p70.S6K_pT389.R.V Average” value (Norm_20, normalized to Norm_0) was 0.981 and the “p90RSK_pT573.R.C Average” value (Norm_20, normalized to Norm_0) was 0.937. For the same compound, the “PREX1.R.V normalized RPPA signal” value [1] was 1.049 and 0.907 and 1.063 and 1.006, the “PTEN.R.V normalized RPPA signal” value [1] was 1.227 and 1.032 and 1.101 and the “PTPN12.R.V normalized RPPA signal” value [1] was 0.953 and 1.002 and 1.471 and 1.142. For the same compound, the “PYGB.R.V normalized RPPA signal” value [1] was 1.322 and 1.252 and 1.214, the “PYGM.M.C normalized RPPA signal” value [1] was 0.919 and 1.127 and 1.743 and 1.263 and the “Puma.R.C normalized RPPA signal” value [1] was 1.011 and 1.199. For the same compound, the “Pyk2_pY402.R.C normalized RPPA signal” value [1] was 1.106 and 1.030 and 0.994, the “RBM15.R.V normalized RPPA signal” value [1] was 1.053 (2×) and 1.142 and 1.083 and the “RIP3.R.C normalized RPPA signal” value [1] was 1.022 and 0.957 and 0.979 and 0.986. For the same compound, the “RIP.R.C normalized RPPA signal” value [1] was 0.835 and 1.185 and 1.165 and 1.062, the “RPA32.R.V normalized RPPA signal” value [1] was 1.395 and 1.278 and 1.255 and the “RPA32_pS4_S8.R.C normalized RPPA signal” value [1] was 2.064 and 2.369 and 1.687 and 2.040. The “RRM1.R.C normalized RPPA signal” value [1] was 0.973 and 0.832 and 0.977 and 0.927, the “RRM2.R.C normalized RPPA signal” value [1] was 0.797 and 0.718 and 1.114 and 0.876 and the “RSK1.R.V normalized RPPA signal” value [1] was 1.025 and 1.192 and 1.102. For the same compound, the “RSK.R.C normalized RPPA signal” value [1] was 0.897 and 1.161, the “Rab11.R.C normalized RPPA signal” value [1] was 0.945 and 1.018 and the “Rab25.R.V normalized RPPA signal” value [1] was 1.022 and 0.964 and 0.955 and 0.980. The “Rad17_pS645.R.V normalized RPPA signal” value [1] was 0.978 and 0.844 and 0.971, the “Rad23A.R.C normalized RPPA signal” value [1] was 0.902 and 0.794 and 1.765 and 1.154 and the “Rad50.R.V normalized RPPA signal” value [1] was 1.096 and 1.085 and 1.310 and 1.164. For the same compound, the “Rad51.R.C normalized RPPA signal” value [1] was 0.693 and 0.792 and 0.842 and 0.776, the “Raptor.R.V normalized RPPA signal” value [1] was 0.796 and 0.917 and 1.035 and 0.916 and the “Rb.M.Q normalized RPPA signal” value [1] was 0.868 and 1.016 and 1.009 and 0.964. For the same compound, the “Rb_pS807_S811.R.V normalized RPPA signal” value [1] was 0.751 and 0.680 and 0.842, the “Rheb.M.C normalized RPPA signal” value [1] was 1.435 and 1.017 and 1.212 and the “Rictor.R.C normalized RPPA signal” value [1] was 0.973 and 1.010 and 1.009. For the same compound, the “Rictor_pT1135.R.V normalized RPPA signal” value [1] was 0.917 and 1.033 and 0.998, the “S6.M.V normalized RPPA signal” value [1] was 1.331 and 0.833 and the “S6_pS235_S236.R.V normalized RPPA signal” value [1] was 0.159 and 0.167 and 0.469 and 0.265. For the same compound, the “S6_pS240_S244.R.V normalized RPPA signal” value [1] was 0.113 and 0.501 and 0.240, the “SCD.M.V normalized RPPA signal” value [1] was 0.924 and 0.950 and 0.971 and the “SDHA.R.V normalized RPPA signal” value [1] was 1.123 and 1.101 and 1.057. The “SF2.R.V normalized RPPA signal” value [1] was 1.010 and 0.957, the “SFRP1.R.V normalized RPPA signal” value [1] was 0.979 and 1.009 and 0.863 and 0.950 and the “SGK1.R.V normalized RPPA signal” value [1] was 0.759 and 0.622 and 1.145 and 0.842. The “SGK3.R.V normalized RPPA signal” value [1] was 0.855 and 0.956 and 0.913 and 0.908, the “SHP2.R.V normalized RPPA signal” value [1] was 0.966 and 1.028 and 0.923 and 0.972 and the “SHP.2_pY542.R.C normalized RPPA signal” value [1] was 1.218 and 1.287 and 1.191. The “SIRPαR.V normalized RPPA signal” value [1] was 1.172 and 0.832 and 0.694 and 0.900, the “SLC1A5.R.C normalized RPPA signal” value [1] was 1.248 and 1.028 and 1.189 and 1.155 and the “SOD1.M.V normalized RPPA signal” value [1] was 0.834. The “SOD2.R.V normalized RPPA signal” value [1] was 1.108 and 1.226 and 0.894 and 1.076, the “SOX7.R.V normalized RPPA signal” value [1] was 1.078 and 1.212 and 1.083 and 1.124 and the “STING.R.V normalized RPPA signal” value [1] was 0.848 and 1.021.
